Reference: patent US5120711A, “Synergistically active veterinary compositions and process for preparing same” (EGIS Gyogyszergyar, priority 1988, dated 1992)
Positions of bridges follow the written chain, without caps; N, C: chain ends. Non-standard residues stand in square brackets, D forms with d. Residues, ends and D or L forms follow the SMILES beside them. *: point of attachment. Octanoyl(6-Me) = CCC(C)CCCCC(=O)*; Dab = NCC[CH](N)C(=O)O

Key:
[1] = test system: Escherichia coli 17; test: microbe, parasite or virus in culture; settings: for MIC: Escherichia coli, 17, read-out: MIC values for microorganism D (Escherichia coli 17)
Protocol: (§1) The minimum inhibitory concentrations (MIC values) of the above compounds and their two-component combinations of 1:1 ratio by weight against the following microorganisms arising from mastitis and metritis processes of cattle were tested by using the serial dilution method in a phenol red-glucose broth medium (manufactured by DIFCO) or, by using a Sabouraud's broth medium, respectively in the cases of fungal strains.
(§2) Bacterial strains were cultivated at 37° C. whilst the fungal strain (Candida albicans) was propagated at 26° C.

[2] = test system: Escherichia coli 494; test: microbe, parasite or virus in culture; settings: for MIC: Escherichia coli, 494, read-out: MIC values for microorganism C (Escherichia coli 494)
Protocol: as §1, §2

[3] = test system: Staphylococcus aureus; test: microbe, parasite or virus in culture; settings: for MIC: Staphylococcus aureus, read-out: MIC values for microorganism A (Staphylococcus aureus)
Protocol: as §1, §2

[4] = test system: Streptococcus zooepidemicus; test: MIC, serial dilution in phenol red-glucose broth; type: cell-based; settings: bactericidal, complete inhibition of growth, 37° C.; for MIC: Streptococcus equi, read-out: MIC values for microorganism B (Streptococcus zooepidemicus)
Protocol: as §1
B--Streptococcus zooepidemicus
as §2

[5] = test system: Pseudomonas aeruginosa; test: MIC, serial dilution in phenol red-glucose broth; type: cell-based; settings: bactericidal, complete inhibition of growth, 37° C.; for MIC: Pseudomonas aeruginosa, read-out: MIC values for microorganism F (Pseudomonas aeruginosa)
Protocol: as §1
F--Pseudomonas aeruginosa
as §2

[6] = test system: Candida albicans; test: MIC, serial dilution in Sabouraud's broth; type: cell-based; settings: for MIC: Candida albicans, read-out: MIC values for microorganism G (Candida albicans)
Protocol: as §1, §2

[7] = test system: Streptococcus agalactiae; test: MIC, serial dilution in phenol red-glucose broth; type: cell-based; settings: bactericidal, complete inhibition of growth, 37° C.; for MIC: Streptococcus agalactiae, read-out: MIC values for microorganism H (Streptococcus agalactiae)
Protocol: as §1
H--Streptococcus agalactiae
as §2

[8] = test system: Streptococcus dysgalactiae; test: MIC, serial dilution in phenol red-glucose broth; type: cell-based; settings: bactericidal, complete inhibition of growth, 37° C.; for MIC: Streptococcus dysgalactiae, read-out: MIC values for microorganism I (Streptococcus dysgalactiae)
Protocol: as §1
I--Streptococcus dysgalactiae
as §2

[9] = test system: Streptococcus faecalis; test: MIC, serial dilution in phenol red-glucose broth; type: cell-based; settings: bactericidal, complete inhibition of growth, 37° C.; for MIC: Enterococcus faecalis, read-out: MIC values for microorganism K (Streptococcus faecalis)
Protocol: as §1
K--Streptococcus faecalis
as §2

[10] = test system: Listeria monocytogenes; test: MIC, serial dilution in phenol red-glucose broth; type: cell-based; settings: bactericidal, complete inhibition of growth, 37° C.; for MIC: Listeria monocytogenes, read-out: MIC values for microorganism L (Listeria monocytogenes)
Protocol: as §1
L--Listeria monocytogenes
as §2

[11] = test system: Corynebacterium pyogenes; test: MIC, serial dilution in phenol red-glucose broth; type: cell-based; settings: bactericidal, complete inhibition of growth, 37° C.; for MIC: Corynebacterium pyogenes, read-out: MIC values for microorganism M (Corynebacterium pyogenes)
Protocol: as §1
M--Corynebacterium pyogenes
as §2

[12] = test system: Salmonella typhimurium; test: MIC, serial dilution in phenol red-glucose broth; type: cell-based; settings: bactericidal, complete inhibition of growth, 37° C.; for MIC: Salmonella enterica, TYPHIMURIUM, read-out: MIC values for microorganism N (Salmonella typhimurium)
Protocol: as §1
N--Salmonella typhimurium
as §2

[13] = test system: Campylobacter fetus; test: MIC in semiliquid thiol culture medium; type: cell-based; settings: bactericidal, complete inhibition of growth, 37° C.; for MIC: Campylobacter fetus, read-out: MIC values for microorganism O (Campylobacter fetus)
Protocol: as §1
(§3) Campylobacter strains were tested in a semiliquid thiol culture medium (manufactured by DIFCO). Bacteroides fragilis and Fusobacterium necrophorum strains were examined by using the agar dilution method on bloody agar containing also tryptose.
as §2

[14] = test system: Campylobacter jejuni; test: MIC in semiliquid thiol culture medium; type: cell-based; settings: bactericidal, complete inhibition of growth, 37° C.; for MIC: Campylobacter jejuni, read-out: MIC values for microorganism P (Campylobacter jejuni)
Protocol: as §1, §3, §2

[15] = test system: Bacteroides fragilis; test: MIC, agar dilution method on bloody agar; type: cell-based; settings: agar dilution method on bloody agar containing tryptose, 37° C.; for MIC: Bacteroides fragilis, read-out: MIC values for microorganism R (Bacteroides fragilis)
Protocol: as §1, §3, §2

[16] = test system: Fusobacterium necrophorum; test: MIC, agar dilution method on bloody agar; type: cell-based; settings: agar dilution method on bloody agar containing tryptose, 37° C.; for MIC: Fusobacterium necrophorum, read-out: MIC values for microorganism S (Fusobacterium necrophorum)
Protocol: as §1
S--Fusobacterium necrophorum
as §3, §2

[17] = test system: Mycoplasma bovis; test: MIC, serial dilution in phenol red-glucose broth; type: cell-based; settings: bactericidal, complete inhibition of growth, 37° C.; for MIC: Mycoplasmopsis bovis, read-out: MIC values for microorganism T (Mycoplasma bovis)
Protocol: as §1
Bacterial strains were cultivated at 37° C. whilst the fungal strain (Candida albicans) was propagated at 26° C. The minimum inhibitory concentrations (MIC values) showing a bactericidal effect, i.e. complete inhibition of the growth of microorganisms whereby the media inoculated remained sterile, are summarized in Table 1.

[18] = test system: Klebsiella pneumoniae; test: MIC, serial dilution in phenol red-glucose broth; type: cell-based; settings: bactericidal, complete inhibition of growth, 37° C.; for MIC: Klebsiella pneumoniae, read-out: MIC values for microorganism E (Klebsiella pneumoniae)
Protocol: as §1, §2

[19] = test system: Mycoplasma bovirhinis; test: MIC, serial dilution in phenol red-glucose broth; type: cell-based; settings: bactericidal, complete inhibition of growth, 37° C.; for MIC: Mycoplasma, read-out: MIC values for microorganism U (Mycoplasma bovirhinis)
Protocol: as §1, §2

[20] = test system: Mycoplasma canadense; test: MIC, serial dilution in phenol red-glucose broth; type: cell-based; settings: bactericidal, complete inhibition of growth, 37° C.; for MIC: Mycoplasma, read-out: MIC values for microorganism V (Mycoplasma canadense)
Protocol: as §1, §2

[21] = test system: Streptococcus uberis; test: MIC, serial dilution in phenol red-glucose broth; type: cell-based; settings: bactericidal, complete inhibition of growth, 37° C.; for MIC: Streptococcus uberis, read-out: MIC values for microorganism J (Streptococcus uberis)
Protocol: as §1, §2

[22] = test system: Aspergillus fumigatus; test: MIC, serial dilution in Sabouraud's broth; type: cell-based; settings: complete inhibition of growth; for MIC: Aspergillus fumigatus, read-out: MIC values for microorganism Z (Aspergillus fumigatus)
Protocol: as §1
Z--Aspergillus fumigatus.
as §2

[23] = complete inhibition of growth, Sabouraud's broth, 26° C.
[24] = bactericidal, complete inhibition of growth, phenol red-glucose broth, 37° C.

Work on `Cc1ccc2c(Cl)cc(Cl)c(O)c2n1` [Chlorquinaldol, 2-methyl-5,7-dichloro-8-hydroxyquinoline] yielded an MIC [1] of 5 µg/mL, an MIC [2] of 5 µg/mL and an MIC [3] of 5 µg/mL. The MIC [4] was 0.5 µg/mL, the MIC [5] was 200 µg/mL and the MIC [6, 23] was 1 µg/mL. It also gave an MIC [7] of 0.5 µg/mL, an MIC [8] of 0.5 µg/mL and an MIC [9] of 5 µg/mL. For the same compound, the MIC [10] was 1 µg/mL, the MIC [11] was 5 µg/mL and the MIC [12] was 200 µg/mL. The MIC [13] was 10 µg/mL, the MIC [14] was 5 µg/mL and the MIC [15] was 1.5 µg/mL. It also gave an MIC [16] of 3 µg/mL, an MIC [17] of 32 µg/mL and an MIC [18] of 200 µg/mL. The MIC [19] was 4 µg/mL, the MIC [20] was 8 µg/mL and the MIC [21] was 0.5 µg/mL. The MIC [22] was 25 µg/mL.

For `Clc1ccccc1C(c1ccccc1)(c1ccccc1)n1ccnc1` [Clotrimazole, 1-(2-chlorophenyl)-diphenylmethyl-1H-imidazole], the MIC [1] was > 200 µg/mL, the “effect on Escherichia coli strains, in words” value ([1]; substance alone) was “very weak effect” and the MIC [2] was > 200 µg/mL. For the same compound, the “effect on Escherichia coli strains, in words” value ([2]; substance alone) was “very weak effect”, the MIC [3] was 0.5 µg/mL and the MIC [4] was 0.5 µg/mL. The MIC [5] was > 200 µg/mL, the MIC [6, 23] was 5 µg/mL and the MIC [7] was 5 µg/mL. For the same compound, the MIC [8] was 0.5 µg/mL, the MIC [9] was 5 µg/mL and the MIC [10] was 5 µg/mL. For the same compound, the MIC [11] was 25 µg/mL, the MIC [12] was 200 µg/mL and the MIC [13] was 100 µg/mL. It also gave an MIC [14] of 100 µg/mL, an MIC [15] of 200 µg/mL and an MIC [16] of 100 µg/mL. For the same compound, the MIC [17] was 32 µg/mL, the MIC [18] was > 200 µg/mL and the MIC [19] was 32 µg/mL. The MIC [20] was 32 µg/mL, the MIC [21] was 0.5 µg/mL and the MIC [22] was 1 µg/mL.

`CCC(C)CCCCC(=O)NC(CCN)C(=O)NC(C(=O)NC(CCN)C(=O)NC1CCNC(=O)C(C(C)O)NC(=O)C(CCN)NC(=O)C(CCN)NC(=O)C(CC(C)C)NC(=O)C(Cc2ccccc2)NC(=O)C(CCN)NC1=O)C(C)O` (stereo not drawn) [Polymyxin B, 6,9,18-tris(2-aminoethyl)-15-benzyl-21-[2,8-bis(2-aminoethyl)-5-(1-hydroxyethyl)-15-methyl-4,7,10-trioxo-3,6,9-triazaheptadecanamido]-3-(1-hydroxyethyl)-12-isobutyl-1,4,7,10,13,16,19-heptaazacyclotricosane-2,5,8,11,14,17,20-heptaone] ({Octanoyl(6-Me)}-[Dab]T[Dab][Dab][Dab]FL[Dab][Dab]T; lactam 4-C; configuration not given here) was tested, and the “MIC values for microorganism D (Escherichia coli 17)” value [1, 24] was 0.5 µg/mL, the “MIC values for microorganism C (Escherichia coli 494)” value [2, 24] was 0.5 µg/mL and the “MIC values for microorganism A (Staphylococcus aureus)” value [3, 24] was 50 µg/mL. For the same compound, the “MIC values for microorganism B (Streptococcus zooepidemicus)” value [4] was 5 µg/mL, the “MIC values for microorganism F (Pseudomonas aeruginosa)” value [5] was 0.5 µg/mL and the “MIC values for microorganism G (Candida albicans)” value [6, 23] was 200 µg/mL. For the same compound, the “fungicidal action, in words” value ([6]; substance alone) was “practically no fungicidal action”, the “MIC values for microorganism H (Streptococcus agalactiae)” value [7] was 5 µg/mL and the “MIC values for microorganism I (Streptococcus dysgalactiae)” value [8] was 5 µg/mL. The “MIC values for microorganism K (Streptococcus faecalis)” value [9] was 200 µg/mL, the “MIC values for microorganism L (Listeria monocytogenes)” value [10] was 5 µg/mL and the “MIC values for microorganism M (Corynebacterium pyogenes)” value [11] was 200 µg/mL. The “MIC values for microorganism N (Salmonella typhimurium)” value [12] was 1 µg/mL, the “MIC values for microorganism O (Campylobacter fetus)” value [13] was 0.5 µg/mL and the “MIC values for microorganism P (Campylobacter jejuni)” value [14] was 5 µg/mL. The “MIC values for microorganism R (Bacteroides fragilis)” value [15] was 200 µg/mL, the “MIC values for microorganism S (Fusobacterium necrophorum)” value [16] was 200 µg/mL and the “MIC values for microorganism T (Mycoplasma bovis)” value [17] was 32 µg/mL. For the same compound, the “MIC values for microorganism E (Klebsiella pneumoniae)” value [18] was 5 µg/mL, the “MIC values for microorganism U (Mycoplasma bovirhinis)” value [19] was 32 µg/mL and the “MIC values for microorganism V (Mycoplasma canadense)” value [20] was 32 µg/mL. The “MIC values for microorganism J (Streptococcus uberis)” value [21] was 10 µg/mL and the “MIC values for microorganism Z (Aspergillus fumigatus)” value [22] was 200 µg/mL.
